Results from patent US20240342292A1, “Compounds for the Degradation of EGFR Kinase” (BeiGene Switzerland GmbH, priority 2021, published 2024).

What was measured:
[1] = molecular target: T1, L858R/T790M/C797S EGFR (Homo sapiens, UniProt P00533, C797S/L858R/T790M); test: EGFR degradation HTRF assay in H1975-clone #25 (LTC) cells; type: cell-based; conditions: 16h treatment; for DC50: H1975 # 25-LTC (L858R/T790M/C797S), HTRF; for Dmax: NCI-H1975, H1975 # 25-LTC (L858R/T790M/C797S), maximum percentage of degradation
T1 construct: expressed in transfected cells; host or cells: H1975 clone #25 (lentiviral over-expression, endogenous EGFR knocked out by sgRNA)
T1 sequence (P00533 25-1210 T790M/C797S/L858R): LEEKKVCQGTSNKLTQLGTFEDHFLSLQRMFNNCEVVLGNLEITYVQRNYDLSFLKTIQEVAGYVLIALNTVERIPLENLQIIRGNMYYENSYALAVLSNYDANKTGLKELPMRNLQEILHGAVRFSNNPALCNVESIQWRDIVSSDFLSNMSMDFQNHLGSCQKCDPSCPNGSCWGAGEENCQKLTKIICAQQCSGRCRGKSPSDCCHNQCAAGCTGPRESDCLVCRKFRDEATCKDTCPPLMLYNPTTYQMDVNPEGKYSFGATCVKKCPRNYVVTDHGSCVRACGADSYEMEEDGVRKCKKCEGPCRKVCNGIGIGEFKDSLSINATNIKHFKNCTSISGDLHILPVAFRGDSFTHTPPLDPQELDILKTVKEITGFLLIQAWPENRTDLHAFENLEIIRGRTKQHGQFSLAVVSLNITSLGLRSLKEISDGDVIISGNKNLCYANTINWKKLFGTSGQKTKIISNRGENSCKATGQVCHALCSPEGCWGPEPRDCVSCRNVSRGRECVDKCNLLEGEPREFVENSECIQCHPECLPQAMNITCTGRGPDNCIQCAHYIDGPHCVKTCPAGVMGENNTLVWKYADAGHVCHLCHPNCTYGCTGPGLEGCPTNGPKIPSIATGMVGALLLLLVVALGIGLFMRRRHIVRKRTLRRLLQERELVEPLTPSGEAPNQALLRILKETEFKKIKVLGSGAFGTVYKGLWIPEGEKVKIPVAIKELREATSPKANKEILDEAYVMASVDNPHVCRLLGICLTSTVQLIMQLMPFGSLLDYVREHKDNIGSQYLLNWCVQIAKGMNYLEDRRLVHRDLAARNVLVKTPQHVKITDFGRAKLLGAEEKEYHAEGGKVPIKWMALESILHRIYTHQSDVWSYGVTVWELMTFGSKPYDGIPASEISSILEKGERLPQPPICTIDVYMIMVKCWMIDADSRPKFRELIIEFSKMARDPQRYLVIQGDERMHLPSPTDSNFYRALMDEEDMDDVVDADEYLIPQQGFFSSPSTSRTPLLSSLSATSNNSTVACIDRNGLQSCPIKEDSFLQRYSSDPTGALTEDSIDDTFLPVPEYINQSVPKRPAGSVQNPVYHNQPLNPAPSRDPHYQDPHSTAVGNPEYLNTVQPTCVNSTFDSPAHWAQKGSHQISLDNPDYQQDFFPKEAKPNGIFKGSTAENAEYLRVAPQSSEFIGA
Procedure, shortened: (§1)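 EGFR levels quantified by HTRF on lysates after 16 h compound exposure (top 10 uM, 5-fold, 8 points) in single-cell H1975 clones expressing only exogenous mutant EGFR after sgRNA knockout of endogenous copies. DC50 derived by four-parameter logistic fitting of inhibition percentage.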

[2] = system: Del19/T790M/C797S EGFR; test: EGFR degradation HTRF assay in H1975-clone #28 (DTC) cells; type: cell-based; conditions: H1975 # 28 DTC (Del19/T790M/C797S), 16h treatment; for DC50: HTRF; for Dmax (%): maximum percentage of degradation
Procedure, shortened: as §1

Structure (SMILES) | DC50 [1] | Dmax [1] | DC50 [2] | Dmax (%) [2]
CO[C@H]1CN(CCc2cc(F)c([C@H]3CCC(=O)NC3=O)c(F)c2)CC[C@H]1NC(=O)c1ccc2c(c1)N1C[C@H](C)CCCOc3c(cnn3C)-c3cc(cc(C)n3)C(=O)/N=C/1N2 [Example 244, (R,E)-N-((3S,4R)-1-(4-((R)-2,6-dioxopiperidin-3-yl)-3,5-difluorophenethyl)-3-methoxypiperidin-4-yl)-1^1,2^6,7-trimethyl-3-oxo-5^2,5^3-dihydro-1^1H,5^1H-li-oxa-4-aza-5(2,1)-benzo[d]imidazola-2(2,4)-pyridina-1(4,5)-pyrazolacycloundecaphane-5^6-carboxamide] | 0.167 nM | 95.3% | 0.548 nM | 78.89%
Cc1cc2cc(n1)-c1cnn(C)c1OCCC[C@@H](C)CN1/C(=N/C2=O)Nc2ccc(C3CCN(CC4CN(c5cc(F)c([C@H]6CCC(=O)NC6=O)c(F)c5)C4)CC3)cc21 [Example 331, (R)-3-(2,6-difluoro-4-(3-((4-((R,E)-1^1,2^6,7-trimethyl-3-oxo-5^2,53-dihydro-1^1H,5^1H-11-oxa-4-aza-5(2,1)-benzo[d]imidazola-2(2,4)-pyridina-1(4,5)-pyrazolacycloundecaphane-5-yl)piperidin-1-yl)methyl)azetidin-1-yl)phenyl)piperidine-2,6-dione] | 0.71 nM | 97.1% | 1.33 nM | 73.69%
Cc1cc2cc(n1)-c1cnn(C)c1OCCC[C@@H](C)CN1/C(=N/C2=O)Nc2ccc(CN3CC4(C3)CN(C(=O)[C@@H]3CCN(c5cc(F)c([C@H]6CCC(=O)NC6=O)c(F)c5)C3)C4)cc21 [Example 78, (R)-3-(2,6-difluoro-4-((R)-3-(6-(((R,E)-1^1,2^6,7-trimethyl-3-oxo-5^2,5^3-dihydro-1^1H,5^1H-11-oxa-4-aza-5(2,1)-benzo[d]imidazola-2(2,4)-pyridina-1(4,5)-pyrazolacycloundecaphane-5^6-yl)methyl)-2,6-diazaspiro[3.3]heptane-2-carbonyl)pyrrolidin-1-yl)phenyl)piperidine-2,6-dione] | 0.5 nM | 90.2% | 0.7 nM | 82.6%
Cc1cc2cc(n1)-c1cnn(C)c1OCCC[C@@H](C)CN1/C(=N/C2=O)Nc2ccc(C(=O)N(C)C3CCN(CCc4cc(F)c([C@H]5CCC(=O)NC5=O)c(F)c4)CC3(C)C)cc21 (stereo partly drawn) [Example 439, (R,E)-N—((S)-1-(4-((R)-2,6-dioxopiperidin-3-yl)-3,5-difluorophenethyl)-3,3-dimethylpiperidin-4-yl)-N,1^1,2^6,7-tetramethyl-3-oxo-5^2,5^3-dihydro-1^1H,5^1H-11-oxa-4-aza-5(2,1)-benzo[d]imidazola-2(2,4)-pyridina-1(4,5)-pyrazolacycloundecaphane-5^6-carboxamide] | 1.4 nM | 87.3% | 1.52 nM | 76.03%
Cc1cc2cc(n1)-c1cnn(C)c1OCCC[C@@H](C)CN1/C(=N/C2=O)Nc2ccc(N3CCC(NC4CCN(c5cc(F)c([C@H]6CCC(=O)NC6=O)c(F)c5)CC4)CC3)cc21 [Example 401, (R)-3-(2,6-difluoro-4-(4-((1-((R,E)-1^1,2^6,7-trimethyl-3-oxo-5^2,5^3-dihydro-1^1H,5^1H-11-oxa-4-aza-5(2,1)-benzo[d]imidazola-2(2,4)-pyridina-1(4,5)-pyrazolacycloundecaphane-5^6-yl)piperidin-4-yl)amino)piperidin-1-yl)phenyl)piperidine-2,6-dione] | 1.37 nM | 81.1% | 3.18 nM | 70.19%
Cc1cc2cc(n1)-c1cnn(C)c1OCCC[C@@H](C)CN1/C(=N/C2=O)Nc2ccc(C(=O)N3CC[C@@H](N(C)CCc4cc(F)c([C@H]5CCC(=O)NC5=O)c(F)c4)C3)cc21 [Example 295, (R)-3-(2,6-difluoro-4-(2-(menthyl((R)-1-((R,E)-1^1,2^6,7-trimethyl-3-oxo-5^2,5^3-dihydro-1^1H,5^1H-11-oxa-4-aza-5(2,1)-benzo[d]imidazola-2(2,4)-pyridina-1(4,5)-pyrazolacycloundecaphane-5^6-carbonyl)pyrrolidin-3-yl)amino)ethyl)phenyl)piperidine-2,6-dione] | 0.478 nM | 89.5% | 0.313 nM | 78.39%
Cc1cc2cc(n1)-c1cnn(C)c1OCCC[C@@H](C)CN1/C(=N/C2=O)Nc2ccc(CN3CCC4(CC3)CN(C(=O)[C@@H]3CCN(c5cc(F)c([C@H]6CCC(=O)NC6=O)c(F)c5)C3)C4)cc21 [Example 20, (R)-3-(2,6-difluoro-4-((R)-3-(7-(((R,E)-1^1,2^6,7-trimethyl-3-oxo-5^2,5^3-dihydro-1^1H,5^1H-li-oxa-4-aza-5(2,1)-benzo[d]imidazola-2(2,4)-pyridina-1(4,5)-pyrazolacycloundecaphane-5^6-yl)methyl)-2,7-diazaspiro[3.5]nonane-2-carbonyl)pyrrolidin-1-yl)phenyl)piperidine-2,6-dione] | 0.9 nM | 89% | 0.7 nM | 79.0%
Cc1cc2cc(n1)-c1cnn(C)c1OCCC[C@@H](C)CN1/C(=N/C2=O)Nc2ccc(N3CCC(N(C)C4CCN(c5cc(F)c([C@H]6CCC(=O)NC6=O)c(F)c5)CC4)CC3)cc21 [Example 394, (R)-3-(2,6-difluoro-4-(4-(methyl(1-((R,E)-1^1,2^6,7-trimethyl-3-oxo-5^2,5^3-dihydro-1^1H,5^1H-11-oxa-4-aza-5(2,1)-benzo[d]imidazola-2(2,4)-pyridina-1(4,5)-pyrazolacycloundecaphane-5^6-yl)piperidin-4-yl)amino)piperidin-1-yl)phenyl)piperidine-2,6-dione] | 0.787 nM | 74.1% | 0.901 nM | 69.35%
Cc1cc2cc(n1)-c1cnn(C)c1OCCC[C@@H](C)CN1/C(=N/C2=O)Nc2ccc(CN3C[C@@H]4C[C@H]3CN4C(=O)[C@@H]3CCN(c4cc(F)c([C@H]5CCC(=O)NC5=O)c(F)c4)C3)cc21 [Example 82, (R)-3-(2,6-difluoro-4-((R)-3-((1S,4S)-5-(((R,E)-1^1,2^6,7-trimethyl-3-oxo-5^2,5^3-dihydro-1^1H,5^1H-11-oxa-4-aza-5(2,1)-benzo[d]imidazola-2(2,4)-pyridina-1(4,5)-pyrazolacycloundecaphane-5^6-yl)methyl)-2,5-diazabicyclo[2.2.1]heptane-2-carbonyl)pyrrolidin-1-yl)phenyl)piperidine-2,6-dione] | 0.6 nM | 88.6% | 0.7 nM | 78.4%
Cc1cc2cc(n1)-c1cnn(C3CC3)c1OCCC[C@@H](C)CN1/C(=N/C2=O)Nc2ccc(CN3CCN(C(=O)[C@H]4CN(c5cc(F)c([C@H]6CCC(=O)NC6=O)c(F)c5)CC4(C)C)CC3)cc21 [Example 165, (R)-3-(4-((R)-4-(4-(((R,E)-11-cyclopropyl-2^6,7-dimethyl-3-oxo-5^2,5^3-dihydro-1^1H,5^1H-11-oxa-4-aza-5(2,1)-benzo[d]imidazola-2(2,4)-pyridina-1(4,5)-pyrazolacycloundecaphane-5^6-)n-methyl)piperazine-1-carbonyl)-3,3-dimethylpyrrolidin-1-yl)-2,6-difluorophenyl)piperidine-2,6-dione] | 3.1 nM | 79.9% | 2.95 nM | 74.73%
Cc1cc2cc(n1)-c1cnn(C)c1OCCC[C@@H](C)CN1/C(=N/C2=O)Nc2ccc(N(C)C3CCN(C(=O)[C@@H]4CCN(c5cc(F)c([C@H]6CCC(=O)NC6=O)c(F)c5)C4)CC3)cc21 [Example 172, (R)-3-(2,6-difluoro-4-((R)-3-(4-(methyl((R,E)-1^1,2^6,7-trimethyl-3-oxo-5^2,5^3-dihydro-1^1H,5^1H-11-oxa-4-aza-5(2,1)-benzo[d]imidazola-2(2,4)-pyridina-1(4,5)-pyrazolacycloundecaphane-5^6-yl)amino)piperidine-1-carbonyl)pyrrolidin-1-yl)phenyl)piperidine-2,6-dione] | 0.954 nM | 90.6% | 0.663 nM | 75.08%
Cc1cc2cc(n1)-c1cnn(C)c1OCCC[C@@H](C)CN1/C(=N/C2=O)Nc2ccc(CN3CCN(C(=O)C4CN(c5cc(F)c([C@H]6CCC(=O)NC6=O)c(F)c5)C4)CC3)cc21 [Example 76, (R)-3-(2,6-difluoro-4-(3-(4-(((R,E)-1^1,2^6,7-trimethyl-3-oxo-5^2,5-dihydro-1^1H,5^1H-11-oxa-4-aza-5(2,1)-benzo[d]imidazola-2(2,4)-pyridina-1(4,5)-pyrazolacycloundecaphane-5^6-yl)methyl)piperazine-1-carbonyl)azetidin-1-yl)phenyl)piperidine-2,6-dione] | 0.9 nM | 84.4% | 0.7 nM | 75.8%
Cc1cc2cc(n1)-c1cnn(C)c1OCCC[C@@H](C)CN1/C(=N/C2=O)Nc2ccc(C(=O)N(C)C[C@@H]3CCN(CCc4cc(F)c([C@H]5CCC(=O)NC5=O)c(F)c4)CC3(F)F)cc21 [Example 273, (R,E)-N—(((S)-1-(4-((R)-2,6-dioxopiperidin-3-yl)-3,5-difluorophenethyl)-3,3-difluoropiperidin-4-yl)methyl)-N,1′,2,7-tetramethyl-3-oxo-5^2,5^3-dihydro-1^1H,5^1H-11-oxa-4-aza-5(2,1)-benzo[d]imidazola-2(2,4)-pyridina-1(4,5)-pyrazolacycloundecaphane-5^6-carboxamide] | 4.58 nM | 88.8% | 0.489 nM | 66.66%
